This assay concerns the target T1, human MS (hMS; recombinant FLAG-tagged methionine synthase) (Homo sapiens, UniProt Q99707).
T1 construct: gene MTR; full-length ORF from human brain cerebral cortex cDNA in p3xFLAG-Myc-CMV (p3xFLAG-hMS), N-terminal 3xFLAG tag kept; expressed in COS-7 cells, apoenzyme in cell homogenate (low endogenous monkey MS background)
The experiment in a line: activation of apo-MS in cell homogenate, HPLC activity assay, saturation fit. The assay is classed as biochemical. The conditions noted are these: cobalamin reduced by titanium citrate; substrate 5-methyltetrahydrofolate; homogenate of MS cDNA-transfected COS-7 cells grown without OH-Cbl; read-out: apparent Kd.

In article PMC7396987, “Biological Activity of Pseudovitamin B12 on Cobalamin-Dependent Methylmalonyl-CoA Mutase and Methionine Synthase in Mammalian Cultured COS-7 Cells” (Molecules, 2020) one finds Kd data, which are given here for one substance.

T1 sequence (Q99707 2-1265 limits assumed): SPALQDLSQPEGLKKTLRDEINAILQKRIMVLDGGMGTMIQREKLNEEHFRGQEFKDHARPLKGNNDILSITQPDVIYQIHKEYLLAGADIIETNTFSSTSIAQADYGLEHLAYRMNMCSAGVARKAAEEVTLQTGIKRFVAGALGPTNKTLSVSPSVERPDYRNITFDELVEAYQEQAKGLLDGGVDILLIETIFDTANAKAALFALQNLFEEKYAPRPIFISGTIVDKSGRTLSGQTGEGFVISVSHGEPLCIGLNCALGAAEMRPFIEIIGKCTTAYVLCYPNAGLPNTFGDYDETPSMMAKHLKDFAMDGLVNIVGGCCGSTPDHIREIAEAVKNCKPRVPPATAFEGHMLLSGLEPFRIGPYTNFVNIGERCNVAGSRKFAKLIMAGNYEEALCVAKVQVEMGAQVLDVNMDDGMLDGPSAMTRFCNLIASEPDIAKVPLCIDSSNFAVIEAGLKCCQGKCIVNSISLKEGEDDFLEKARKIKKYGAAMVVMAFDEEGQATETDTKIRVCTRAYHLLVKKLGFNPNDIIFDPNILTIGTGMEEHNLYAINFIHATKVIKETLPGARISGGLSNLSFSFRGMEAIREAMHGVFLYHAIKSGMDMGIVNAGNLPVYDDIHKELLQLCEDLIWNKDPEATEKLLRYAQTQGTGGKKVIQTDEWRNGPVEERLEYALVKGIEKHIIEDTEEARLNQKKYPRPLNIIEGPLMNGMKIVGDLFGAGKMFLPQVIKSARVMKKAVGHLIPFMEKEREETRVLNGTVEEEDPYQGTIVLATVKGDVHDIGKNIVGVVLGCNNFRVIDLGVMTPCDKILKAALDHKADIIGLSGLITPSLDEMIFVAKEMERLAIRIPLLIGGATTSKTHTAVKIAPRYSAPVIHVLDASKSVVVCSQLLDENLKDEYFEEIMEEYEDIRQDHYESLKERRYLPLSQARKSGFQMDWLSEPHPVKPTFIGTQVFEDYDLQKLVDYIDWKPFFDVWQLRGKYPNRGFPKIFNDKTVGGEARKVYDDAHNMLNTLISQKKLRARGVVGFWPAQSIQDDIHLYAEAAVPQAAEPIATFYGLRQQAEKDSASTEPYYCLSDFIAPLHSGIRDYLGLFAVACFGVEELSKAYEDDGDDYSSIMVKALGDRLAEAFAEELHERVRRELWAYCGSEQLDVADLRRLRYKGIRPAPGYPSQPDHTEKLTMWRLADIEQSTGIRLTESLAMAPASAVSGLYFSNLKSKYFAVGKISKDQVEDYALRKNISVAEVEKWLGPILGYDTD

Consider (Ade)OH-Cba [compound 6], for which the Kd is approximately 26.3 µM.
